Patent US20260083865A1, “PROSTATE SPECIFIC MEMBRANE ANTIGEN (PSMA) LIGANDS AND USE THEREOF” (priority 2022, published 2026)
Numbered stars: 1 amine (or outer) side, 2 acyl side, 3 side chain; on linkers, the order of the positions; unused ones are H or OH. Bridge positions count the residues as written; N and C are the ends. Square brackets hold non-standard residues; d marks the D form. Side chains are listed from the residue outwards. Peptide text beside a SMILES is read from it. * marks the point of attachment. TtdsdLys(DOTA)NH2 = NC(=O)[C@@H](CCCCNC(=O)CN1CCN(CC(=O)O)CCN(CC(=O)O)CCN(CC(=O)O)CC1)NC(=O)CCC(=O)NCCCOCCOCCOCCCN*; X7 = O=C(O)CN1CCN(CC(=O)O)CCN(CC(=O)NC2CCN(CC(=O)*)CC2)CCN(CC(=O)O)CC1; DOTA = O=C(O)CN1CCN(CC(=O)O)CCN(CC(=O)*)CCN(CC(=O)O)CC1; Phe(3-Cl) = N[C@@H](Cc1cccc(Cl)c1)C(=O)O; Phe(4-Cl) = N[C@@H](Cc1ccc(Cl)cc1)C(=O)O; Phe(4-F) = N[C@@H](Cc1ccc(F)cc1)C(=O)O; Arg(Me) = CNC(=N)NCCC[C@H](N)C(=O)O; 3Pal = N[C@@H](Cc1cccnc1)C(=O)O; X1 = O=C(CC1CCN([*:1])CC1)[*:2]; Cit = NC(=O)NCCC[C@H](N)C(=O)O; Lys(Me) = CNCCCC[C@H](N)C(=O)O; Tle = CC(C)(C)[C@H](N)C(=O)O; Isovaleryl = CC(C)CC(=O)*; Nle = CCCC[C@H](N)C(=O)O; Hexanoyl = CCCCCC(=O)*; AEEA = NCCOCCOCC(=O)O; Aib = CC(C)(N)C(=O)O

Tests used:
[1] = biological target: T1, PSMA-expressing C4-2 cells (Homo sapiens, UniProt Q04609); assay: FACS binding assay (competition with 50 nM PSM-0183); settings: FACS binding, PSMA-expressing C4-2 cells; pIC50 category; read-out: pIC50 [C4-2] CAT (converted)
T1 construct: PSMA-expressing C4-2 cells (ATCC, Cat. No. CRL-3314) were cultured in RPMI-1640; host or cells: C4-2 cells
T1 sequence (Q04609 whole entry): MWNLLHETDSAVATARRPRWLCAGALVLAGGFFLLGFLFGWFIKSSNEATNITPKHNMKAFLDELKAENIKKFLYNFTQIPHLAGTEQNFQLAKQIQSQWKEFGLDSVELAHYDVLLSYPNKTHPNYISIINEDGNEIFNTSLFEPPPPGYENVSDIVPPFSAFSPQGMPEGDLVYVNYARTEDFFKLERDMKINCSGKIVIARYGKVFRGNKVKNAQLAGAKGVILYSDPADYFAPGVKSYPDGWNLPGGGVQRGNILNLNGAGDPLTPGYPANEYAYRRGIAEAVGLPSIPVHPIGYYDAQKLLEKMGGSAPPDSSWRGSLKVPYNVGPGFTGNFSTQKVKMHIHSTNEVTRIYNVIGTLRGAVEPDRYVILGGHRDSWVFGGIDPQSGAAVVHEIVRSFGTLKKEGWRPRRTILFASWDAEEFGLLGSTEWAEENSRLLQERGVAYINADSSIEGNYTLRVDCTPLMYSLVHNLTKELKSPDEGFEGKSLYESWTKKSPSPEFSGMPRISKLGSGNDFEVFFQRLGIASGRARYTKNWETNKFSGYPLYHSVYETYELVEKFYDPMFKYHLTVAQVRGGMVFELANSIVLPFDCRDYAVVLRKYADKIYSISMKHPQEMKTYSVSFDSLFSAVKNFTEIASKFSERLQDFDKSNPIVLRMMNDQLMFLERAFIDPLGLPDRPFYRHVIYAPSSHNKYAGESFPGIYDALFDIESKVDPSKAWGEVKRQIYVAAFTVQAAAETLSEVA
How it was run: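 Competition format: fluorescent tracer PSM-0183 (50 nM) displaced from PSMA on C4-2 cells by a test compound titration over 1 h at 4 °C. Bound tracer was quantified as flow-cytometric AF488 median fluorescence after washing. Four-parameter logistic fits of MFI data gave IC50 and pIC50.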

[2] = biological target: T2, Fc-fusion protein of human PSMA (hPSMA-Fc) (Homo sapiens, UniProt Q04609); assay: Surface plasmon resonance assay (Biacore T200, single cycle kinetic); type: binding; settings: PSMA SPR assay, hPSMA-Fc, 25° C.; pKD category; read-out: pKD CAT (converted)
T2 construct: purchased Acro Biosystems PSA-H5264
T2 sequence (Q04609 44-750 limits assumed): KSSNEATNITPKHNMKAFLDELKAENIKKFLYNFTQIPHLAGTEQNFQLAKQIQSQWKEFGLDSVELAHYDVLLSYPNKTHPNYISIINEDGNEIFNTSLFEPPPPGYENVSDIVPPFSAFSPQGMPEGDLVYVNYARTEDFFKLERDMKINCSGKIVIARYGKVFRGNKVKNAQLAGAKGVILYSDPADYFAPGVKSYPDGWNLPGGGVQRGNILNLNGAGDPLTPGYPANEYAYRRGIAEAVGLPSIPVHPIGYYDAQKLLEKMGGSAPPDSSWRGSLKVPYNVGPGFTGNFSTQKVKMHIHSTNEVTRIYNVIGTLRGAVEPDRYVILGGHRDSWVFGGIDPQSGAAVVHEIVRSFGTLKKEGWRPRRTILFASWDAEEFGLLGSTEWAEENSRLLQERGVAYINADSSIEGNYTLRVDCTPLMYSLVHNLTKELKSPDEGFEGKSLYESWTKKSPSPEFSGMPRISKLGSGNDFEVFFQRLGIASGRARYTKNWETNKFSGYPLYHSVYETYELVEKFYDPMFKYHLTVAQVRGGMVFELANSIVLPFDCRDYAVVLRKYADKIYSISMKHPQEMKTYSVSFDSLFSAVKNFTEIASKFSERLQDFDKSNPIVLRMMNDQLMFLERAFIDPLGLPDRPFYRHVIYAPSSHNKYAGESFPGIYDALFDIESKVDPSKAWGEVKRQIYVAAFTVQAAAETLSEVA
How it was run: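 KD, expressed as pKD, came from 1:1 Langmuir fits of reference- and buffer-blank-subtracted SPR data. The runs were single-cycle kinetics at 25° C in HBST/0.1% DMSO over human PSMA-Fc, captured to ~1000 RU on a peptide-coated CM5 surface and regenerated with 10 mM glycine pH 1.5.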

Compound | IC50 [1] [nM] | Kd [2] [nM]
CC(=O)N[C@H](C(=O)NC(C)(C)C(=O)N[C@@H](Cc1ccccc1)C(=O)N[C@H]1CSSC[C@@H](C(=O)N[C@H](C(=O)N[C@H](C(=O)N[C@@H](CC(=O)O)C(N)=O)[C@@H](C)O)C(C)(C)C)NC(=O)[C@H](CC(N)=O)NC(=O)C(C)(C)NC(=O)[C@H](CCCNC(N)=O)NC(=O)[C@H](CCCCN)NC1=O)[C@@H](C)O [PSM-0280, Ac-Thr-Aib-Phe-[Cys-Lys-Cit-Aib-Asn-Cys]-Tle-Thr-Asp-NH2] (Ac-T[Aib]FCK[Cit][Aib]NC[Tle]TD-NH2; disulfide 4-9) | < 200 | < 12.6
CC(=O)N[C@@H](Cc1ccc(Cl)cc1)C(=O)N[C@H]1CSSC[C@@H](C(=O)N[C@H](C(N)=O)C(C)(C)C)NC(=O)[C@H](CC(N)=O)NC(=O)C(C)(C)NC(=O)[C@H](CCCNC(=N)N)NC(=O)[C@H](CCCCN)NC1=O [PSM-0281, Ac-Pcf-[Cys-Lys-Arg-Aib-Asn-Cys]-Tle-NH2] (Ac-[Phe(4-Cl)]CKR[Aib]NC[Tle]-NH2; disulfide 2-7) | > 3160 | > 501
CC(=O)NC(C)(C)C(=O)N[C@@H](Cc1ccc(Cl)cc1)C(=O)N[C@H]1CSSC[C@@H](C(=O)N[C@H](C(=O)N[C@H](C(N)=O)[C@@H](C)O)C(C)(C)C)NC(=O)[C@H](CC(N)=O)NC(=O)[C@H](CCCCNC(=O)CN2CCC(NC(=O)CN3CCN(CC(=O)O)CCN(CC(=O)O)CCN(CC(=O)O)CC3)CC2)NC(=O)[C@H](CCCNC(=N)N)NC(=O)[C@H](CCCCN)NC1=O [PSM-0282, Ac-Aib-Pcf-[Cys-Lys-Arg-Lys(DOTA-APAc)-Asn-Cys]-Tle-Thr-NH2] (Ac-[Aib][Phe(4-Cl)]CKRK(X7)NC[Tle]T-NH2; disulfide 3-8) | < 200 | < 12.6
CC(=O)N[C@H](C(=O)NC(C)(C)C(=O)N[C@@H](Cc1cccc(Cl)c1)C(=O)N[C@H]1CSSC[C@@H](C(=O)N[C@H](C(=O)N[C@H](C(N)=O)[C@@H](C)O)C(C)(C)C)NC(=O)[C@H](CC(N)=O)NC(=O)[C@H](CCCCNC(=O)COCCOCCNC(=O)CN2CCN(CC(=O)O)CCN(CC(=O)O)CCN(CC(=O)O)CC2)NC(=O)[C@H](CCCNC(N)=O)NC(=O)[C@H](CCCCN)NC1=O)[C@@H](C)O [PSM-0284, Ac-Thr-Aib-Mcf-[Cys-Lys-Cit-Lys(DOTA-020c)-Asn-Cys]-Tle-Thr-NH2] (Ac-T[Aib][Phe(3-Cl)]CK[Cit]K([AEEA-DOTA])NC[Tle]T-NH2; disulfide 4-9) | < 200 | 12.6 to 126
CCCC[C@H](NC(=O)[C@@H]1CSSC[C@H](NC(=O)[C@H](Cc2ccccc2)NC(=O)[C@H](C)NC(=O)[C@@H](NC(C)=O)[C@@H](C)O)C(=O)N[C@@H](CCCCN)C(=O)N[C@@H](CCCNC(=N)N)C(=O)N[C@@H](C)C(=O)N2CCC[C@H]2C(=O)N1)C(=O)N[C@H](C(=O)N[C@@H](CC(=O)O)C(N)=O)[C@@H](C)O [PSM-0286, Ac-Thr-Ala-Phe-[Cys-Lys-Arg-Ala-Pro-Cys]-Nle-Thr-Asp-NH2] (Ac-TAFCKRAPC[Nle]TD-NH2; disulfide 4-9) | > 3160 | > 501
CCCC[C@H](NC(=O)[C@@H]1CSSC[C@H](NC(=O)[C@H](Cc2ccccc2)NC(=O)[C@H](C)NC(=O)[C@@H](NC(C)=O)[C@@H](C)O)C(=O)N[C@@H](CCCCN)C(=O)N[C@@H](CCCNC(=N)N)C(=O)N[C@@H](C)C(=O)N[C@@H](CC(N)=O)C(=O)N1)C(=O)N[C@H](C(=O)N[C@@H](CC(=O)O)C(N)=O)[C@@H](C)O [PSM-0287, Ac-Thr-Ala-Phe-[Cys-Lys-Arg-Ala-Asn-Cys]-Nle-Thr-Asp-NH2] | < 200 | 12.6 to 126

The next lines start with the values.

IC50 [1] [nM] | Kd [2] [nM] | Compound
< 200 | < 12.6 | CC(=O)N[C@H](C(=O)NC(C)(C)C(=O)N[C@@H](Cc1ccccc1)C(=O)N[C@H]1CSSC[C@@H](C(=O)N[C@H](C(=O)N[C@H](C(=O)N[C@H](CCCCNC(=O)CN2CCN(CC(=O)O)CCN(CC(=O)O)CCN(CC(=O)O)CC2)C(N)=O)[C@@H](C)O)C(C)(C)C)NC(=O)[C@H](CC(N)=O)NC(=O)C(C)(C)NC(=O)[C@H](CCCNC(=N)N)NC(=O)[C@H](CCCCN)NC1=O)[C@@H](C)O [PSM-0288, Ac-Thr-Aib-Phe-[Cys-Lys-Arg-Aib-Asn-Cys]-Tle-Thr-lys(DOTA)-NH2] (Ac-T[Aib]FCKR[Aib]NC[Tle]T[dK](DOTA)-NH2; disulfide 4-9)
200 to 1260 | 12.6 to 126 | CCCCCC(=O)N[C@H](C(=O)NC(C)(C)C(=O)N[C@@H](Cc1ccccc1)C(=O)N[C@H]1CSSC[C@@H](C(=O)N[C@H](C(=O)N[C@H](C(=O)NCCCOCCOCCOCCCNC(=O)CCC(=O)N[C@H](CCCCNC(=O)CN2CCN(CC(=O)O)CCN(CC(=O)O)CCN(CC(=O)O)CC2)C(N)=O)[C@@H](C)O)C(C)(C)C)NC(=O)[C@H](CC(N)=O)NC(=O)C(C)(C)NC(=O)[C@H](CCC(N)=O)NC(=O)[C@H](CCCCN)NC1=O)[C@@H](C)O [PSM-0289, Hex-Thr-Aib-Pho-[Cys-Lys-Gln-Aib-Asn-Cys]-Tle-Thr-Ttds-lys(DOTA)-NH2] (Hexanoyl-T[Aib]FCKQ[Aib]NC[Tle]T-{TtdsdLys(DOTA)NH2}; disulfide 4-9)
> 3160 | > 501 | C[C@@H](O)[C@H](NC(=O)[C@@H](NC(=O)[C@@H]1CSSC[C@H](NC(=O)[C@H](Cc2ccc(Cl)cc2)NC(=O)C(C)(C)NC(=O)CN2CCN(CC(=O)O)CCN(CC(=O)O)CCN(CC(=O)O)CC2)C(=O)N[C@@H](CCCCN)C(=O)N[C@@H](CCCNC(=N)N)C(=O)NC(C)(C)C(=O)N[C@@H](CC(N)=O)C(=O)N1)C(C)(C)C)C(N)=O [PSM-0290, DOTA-Aib-Pcf-[Cys-Lys-Arg-Aib-Asn-Cys]-Tle-Thr-NH2] ({DOTA}-[Aib][Phe(4-Cl)]CKR[Aib]NC[Tle]T-NH2; disulfide 3-8)
1260 to 3160 | > 501 | CC(=O)N[C@H](C(=O)NC(C)(C)C(=O)N[C@@H](Cc1ccccc1)C(=O)N[C@H]1CSSC[C@@H](C(=O)N[C@H](C(=O)N[C@H](C(=O)N[C@@H](CC(=O)O)C(N)=O)[C@@H](C)O)C(C)(C)C)NC(=O)[C@H](CC(N)=O)NC(=O)[C@H](C)NC(=O)[C@H](CCCNC(=N)N)NC(=O)[C@H](CCC(=O)O)NC1=O)[C@@H](C)O [PSM-0291, Ac-Thr-Aib-Phe-[Cys-Glu-Arg-Ala-Asn-Cys]-Tle-Thr-Asp-NH2] (Ac-T[Aib]FCERANC[Tle]TD-NH2; disulfide 4-9)
< 200 | 12.6 to 126 | CC(C)CC(=O)NC(C)(C)C(=O)N[C@@H](Cc1ccccc1)C(=O)N[C@H]1CSSC[C@@H](C(=O)N[C@H](C(=O)N[C@H](C(=O)N[C@H](CCCCNC(=O)CN2CCN(CC(=O)O)CCN(CC(=O)O)CCN(CC(=O)O)CC2)C(N)=O)[C@@H](C)O)C(C)(C)C)NC(=O)[C@H](CC(N)=O)NC(=O)C(C)(C)NC(=O)[C@H](CCCNC(=N)N)NC(=O)[C@H](CCCCN)NC1=O [PSM-0292, Iva-Aib-Phe-[Cys-Lys-Arg-Aib-Asn-Cys]-Tle-Thr-lys(DOTA)-NH2] (Isovaleryl-[Aib]FCKR[Aib]NC[Tle]T[dK](DOTA)-NH2; disulfide 3-8)
< 200 | < 12.6 | CC(=O)N[C@H](C(=O)NC(C)(C)C(=O)N[C@@H](Cc1ccc(Cl)cc1)C(=O)N[C@H]1CSSC[C@@H](C(=O)N[C@H](C(=O)N[C@H](C(N)=O)[C@@H](C)O)C(C)(C)C)NC(=O)[C@H](CO)NC(=O)C(C)(C)NC(=O)[C@H](CCCNC(N)=O)NC(=O)[C@H](CCCCN)NC1=O)[C@@H](C)O [PSM-0293, Ac-Thr-Aib-Pcf-[Cys-Lys-Cit-Aib-Ser-Cys]-Tle-Thr-NH2] (Ac-T[Aib][Phe(4-Cl)]CK[Cit][Aib]SC[Tle]T-NH2; disulfide 4-9)
< 200 | < 12.6 | CC(=O)N[C@H](C(=O)NC(C)(C)C(=O)N[C@@H](Cc1ccc(F)cc1)C(=O)N[C@H]1CSSC[C@@H](C(=O)N[C@H](C(=O)N[C@H](C(N)=O)[C@@H](C)O)C(C)(C)C)NC(=O)[C@H](CC(N)=O)NC(=O)C(C)(C)NC(=O)[C@H](CCCNC(=N)N)NC(=O)[C@H](CCCCN)NC1=O)[C@@H](C)O [PSM-0294, Ac-Thr-Aib-Pff-[Cys-Lys-Arg-Aib-Asn-Cys]-Tle-Thr-NH2] (Ac-T[Aib][Phe(4-F)]CKR[Aib]NC[Tle]T-NH2; disulfide 4-9)
< 200 | < 12.6 | CC(=O)N[C@H](C(=O)NC(C)(C)C(=O)N[C@@H](Cc1ccccc1)C(=O)N[C@H]1CSSC[C@@H](C(=O)N[C@H](C(=O)N[C@H](C(=O)N[C@@H](CC(=O)O)C(=O)NCCCOCCOCCOCCCNC(=O)CCC(=O)N[C@H](CCCCNC(=O)CN2CCN(CC(=O)O)CCN(CC(=O)O)CCN(CC(=O)O)CC2)C(N)=O)[C@@H](C)O)C(C)(C)C)NC(=O)[C@H](CC(N)=O)NC(=O)[C@H](C)NC(=O)[C@H](CCCNC(=N)N)NC(=O)[C@H](CCCCN)NC1=O)[C@@H](C)O [PSM-0295, Ac-Thr-Aib-Phe-[Cys-Lys-Arg-Ala-Asn-Cys]-Tle-Thr-Asp-Ttds-lys(DOTA)-NH2] (Ac-T[Aib]FCKRANC[Tle]TD-{TtdsdLys(DOTA)NH2}; disulfide 4-9)
200 to 1260 | 126 to 501 | CNCCCC[C@@H]1NC(=O)[C@@H](NC(=O)[C@H](Cc2cccnc2)NC(=O)C(C)(C)NC(=O)[C@@H](NC(=O)CC2CCN(C(=O)CN3CCN(CC(=O)O)CCN(CC(=O)O)CCN(CC(=O)O)CC3)CC2)[C@@H](C)O)CSSC[C@@H](C(=O)N[C@H](C(=O)N[C@H](C(N)=O)[C@@H](C)O)C(C)(C)C)NC(=O)[C@H](CC(N)=O)NC(=O)C(C)(C)NC(=O)[C@H](CCCNC(=N)NC)NC1=O [PSM-0296, DOTA-Cmp-Thr-Aib-Mpa-[Cys-Lys(Me)-Arg(Me)-Aib-Asn-Cys]-Tle-Thr-NH2] ({DOTA}-[X1]T[Aib][3Pal]C[Lys(Me)][Arg(Me)][Aib]NC[Tle]T-NH2; disulfide 5-10)
